Where “and” joins values, the source holds several entries; their conditions need not be identical. Equal entries are not always repeated. Entries after “also recorded” stand apart in the source; their conditions may differ.
Tests used:
[1] = system: autosomal Alport mice (COL4A3^−/−); experiment: Early intervention study in Alport mice (treated from 3-7 weeks of age); type: in vivo, mouse
Text: (§1) Vehicle or sparsentan was given daily by oral gavage to autosomal Alport mice (COL4A3^−/−) on the 129/Sv background (male and female) in five separate studies: a pilot study, an early intervention study (treated from 3-7 weeks of age), a late intervention study (treated from 5-7 weeks of age after the onset of glomerular (GM) changes), a lifespan study, and a hearing study (FIG. 1). The early intervention, late intervention, lifespan, and hearing studies also included mice treated with a comparator, losartan, which was given orally at 3-4 weeks of age in the early intervention study, in drinking water at 4-7 weeks of age in the early intervention study, and in drinking water at 5-7 weeks in the late intervention study.
(§2) Efficacy renal endpoints included blood urea nitrogen (BUN), proteinuria (urine protein to creatinine ratio, or UP/C), glomerulosclerosis, tubulointerstitial fibrosis, leucocyte infiltration, and glomerular basement morphology (GBM) using transmission electron microscopy (TEM). Endpoints in the inner ear included auditory brain stem response (ABR) threshold as a measure of noise-induced hearing loss, strial capillary basement membrane thickness, and inner ear pathology by TEM.
In the early intervention study, wild-type and Alport mice were dosed daily by oral gavage with vehicle or sparsentan at 120 mg/kg from 3 to 7 weeks of age (7-8 mice per group), or with losartan at 20 mg/kg by oral gavage from 3-4 weeks of age (during weaning) and 10 mg/kg in drinking water from 4-7 weeks of age.
For the pilot, early intervention, late intervention, and lifespan studies, spot urine was sampled pre-study and weekly during treatment and analyzed for protein (UP) and creatinine (C) to determine proteinuria (UP/C). At the end of each study the animals were euthanized, blood samples were taken, BUN was measured from serum, and kidneys were harvested for structural and immuno-fluorescent measurements. Glomerulosclerosis was assessed by immunofluorescence (IF) using an antibody to fibronectin (FN). Visual counting of the number of sclerotic glomeruli as a proportion of the total number of glomeruli per slide was used to calculate the percentage of sclerotic glomeruli. Sections were co-stained with an anti-CD45 antibody to indicate leucocyte infiltration. Tubulointerstitial fibrosis was determined by IF of kidney sections using an antibody to collagen 1 (COL1). Tubulointerstitial fibrosis (TIF) scoring was conducted by visual assessment of the COL1 positive area as a percentage of the total cortical area and was performed blinded. The fibrosis scoring (“Fibrosis Score”) was categorized according to visual judgment of percentage of total cortical area, as: 0=<5%, 1=5-10%, 2=10-25%, 3=25-50%, 4=50-75%, or 5=75-100%. Ultrastructural changes in GBM and podocyte morphology were observed using transmission electron microscopy (TEM).

[2] = system: autosomal Alport mice (COL4A3^−/−); experiment: Hearing study in Alport mice (ABR, noise exposure, strial capillary basement membrane TEM); type: in vivo, mouse
Text: as §1, §2
For the hearing study, wild-type or Alport mice were treated according to daily from 3-8.5 weeks of age by oral gavage with vehicle (0.5% methylcellulose 4000 cps/0.25% Tween® 80 in distilled water) or 120 mg/kg sparsentan or losartan at 20 mg/kg by oral gavage from 3-4 weeks of age (during weaning) and 10 mg/kg in drinking water from 4-7 weeks of age (n=5). The progression of Alport disease was assessed at 7 weeks of age by the amount of proteinuria (via urinalysis reagent strips—data not shown). Strial capillary basement membrane (SCBM) width was analyzed by transmission electron microscopy (TEM), and accumulation of extracellular matrix (ECM) in SCBM was determined by immunofluorescence (IF) microscopy using an antibody to laminin α2. Hearing ability and sensitivity to noise were assessed between 7 and 8 weeks of age by Auditory Brainstem Response (ABR), pre-noise exposure. A subset of each treatment group was then exposed to a metabolic noise stress for 10 hours. Mice receiving the noise treatment were randomly selected for overstimulation with a 106 dB sound pressure level (SPL), narrow band noise (8-16 kHz) for 10 hours, usually 10 PM to 8 AM. The noise exposure was conducted in a sound-isolation booth. A speaker was suspended from the ceiling. Wire cages with individual compartments were located midway between the floor and speaker. Mice were hydrated prior to placement in the cage and were provided free access to food. The noise exposure occurred at 8 weeks of age. The amount of hearing loss caused by the metabolic noise exposure was determined 5 days post-exposure.

[3] = Alport mice, sparsentan 120 mg/kg, at 7 wk of age, mean ± SD

CCCCC1=NC2(CCCC2)C(=O)N1Cc1ccc(-c2ccccc2S(=O)(=O)Nc2noc(C)c2C)c(COCC)c1 [sparsentan]
GBM damage and podocyte effacement (TEM) ([1]; Alport mice, sparsentan 120 mg/kg, early intervention): prevented changes in GBM ultrastructural morphology; also recorded: amelioration | UP/C ([1]; Alport mice, sparsentan 120 mg/kg oral daily from 3 wk, at 4 wk of age, mean ± SD, n = 8): 3.8 ± 1.3 mg/mg | UP/C ([1]; Alport mice, sparsentan 120 mg/kg, at 5 wk of age, mean ± SD): 10.4 ± 2.8 mg/mg | UP/C ([1]; Alport mice, sparsentan 120 mg/kg, at 6 wk of age, mean ± SD): 13.6 ± 3.7 mg/mg | BUN [1, 3]: 17.5 ± 3.3 mg/dL | Sclerotic Glomeruli (%) [1, 3]: 0.8 ± 1.7 % | UP/C [1, 3]: 14.0 ± 3.3 mg/mg | Fibrosis Score ([1]; Alport mice, sparsentan 120 mg/kg, at 7 wk, score 0=<5% to 5=75-100% COL1 area, mean ± SD): 0.0 ± 0.0 | Development of nephropathy in Alport mice ([1]; sparsentan 120 mg/kg 28 days or losartan 20 mg/kg 7 days then 10 mg/kg 21 days, from 3 weeks of age): prevented | UP/C, BUN, glomerulosclerosis, and fibrosis vs. vehicle-treated Alport mice ([1]; sparsentan 120 mg/kg or losartan 20/10 mg/kg from 3 weeks of age, P<0.05): significant attenuation | TIF or glomerulosclerosis ([1]; sparsentan- or losartan-treated Alport mice, early intervention): little to no | Hearing ability before noise exposure (ABR) ([2]; 7-8-week-old mice, sparsentan 120 mg/kg or losartan 20/10 mg/kg): did not differ significantly | Post-noise hearing loss (ABR threshold post-noise minus pre-noise) vs vehicle-treated Alport mice ([2]; 16 kHz, 5 days after 10 h noise, sparsentan 120 mg/kg, P<0.05): prevented; also recorded: significantly reduced | Increase in strial capillary basement membrane width observed in vehicle-treated Alport mice ([2]; Alport mice treated 3-8.5 weeks of age with sparsentan or losartan): prevented | mean SCBM width±SD ([2]; Alport mice, sparsentan 120 mg/kg from 3-8.5 weeks of age, TEM, n=5): 54.7±2.4 nm | Strial capillary basement membrane thickness, single measurements (FIG. 16) ([2]; capillary from a stria of a sparsentan-treated Alport mouse, TEM): 52.45 nm and 58.09 nm and 80.38 nm | Stria vascularis pathology by TEM ([2]; treated Alport mice, FIGS. 14-23): substantially fewer extra- and intra-cytosolic vacuoles

From patent US11207299B2, “Biphenyl sulfonamide compounds for the treatment of type IV collagen diseases” (Travere Therapeutics, Inc., priority 2018, dated 2021)
